Laboratory results published in patent US6562796B2, “Derivatives of polyene macrolides and preparation and use thereof” (Micrologix Biotech Inc., priority 2000, dated 2003).
Marks after values point to notes of the source that are not given here.

Experiments:
dogs = details: compared with amphotericin B; cited from earlier work
Candida albicans [1] = assay: Minimum Fungicidal Concentration, plating from MIC wells on blood agar; type: cell-based; details: blood agar plates, 35° C., 48 hours
Description: (§1) For each compound Minimum Inhibitory Concentrations (MIC) were determined as described in Reference Method for Broth Dilution Antifungal Susceptibility Testing of Yeasts; Approved Standard; NCCLS document M27-A (ISBN 1-56238-328-0); NCCLS, 940 West Valley Road, Suite 1400, Wayne, Pa. 19087, 1997. […] Ten microliter samples were removed from the corresponding wells and deposited onto blood agar plates. Plates were incubated at 35° C. for 48 hours. The highest compound dilution at which no colonies are apparent on the plate was considered the MFC. Maximum non-lethal dose (NLD) data were also obtained for each product by initially intravenously administering a single 16 mg/kg dose to each of 4 mice in several groups. After review of findings, higher or lower doses were administered and a maximum non-lethal dose was determined. Ed50 data were also obtained for each compound. Efficacy was evaluated in mice injected with C. albicans. Therapeutic efficacy was defined as a 2 log reduction in kidney cfu relative to mean vehicle control.

rats = details: compared with amphotericin B; cited from earlier work
[2] = system: patients with systemic fungal infections; details: human, in vivo; cited from earlier work
Candida albicans [3] = assay: Minimum Inhibitory Concentration, broth dilution (NCCLS M27-A); type: cell-based
Description: Of course, compounds having MICs on the low end of these ranges, or even lower, are preferred. […] Toxicity is less of a concern for typical administration, as is water solubility.
as §1

mice [4] = details: cited from earlier work
C. albicans = assay: Efficacy in mice injected with C. albicans (kidney cfu reduction); type: in vivo, Candida albicans; details: for ED50: Candida albicans, mice injected with C. albicans, efficacy = 2 log reduction in kidney cfu relative to mean vehicle control, read-out: ED50 Kidney CFU Red.; for level of Candida albicans in the kidneys of mice (FIG. 1): treated mice, compared with AME
Description: as §1

mice [5] = assay: Maximum non-lethal dose, single intravenous dose in mice; type: in vivo
Description: as §1

Row | SMILES | acute, nephro and hepto toxicity (dogs) | Micro. Data (DLM/CJ) MFC (Candida albicans [1]) | acute, nephro and hepto toxicity (rats) | neurological toxicity in clinical trial [2] | Micro. Data (DLM/CJ) MIC (Candida albicans [3]) | Water Sol. (Water solubility) | NLD (maximum non-lethal dose), literature value (mice [4]) | ED50 (C. albicans) [mg/kg] | NLD (maximum non-lethal dose) (mice [5]) [mg/kg] | level of Candida albicans in the kidneys of mice (FIG. 1) (C. albicans)
1 | COC(=O)[C@H]1[C@@H]2C[C@@H](O[C@@H]3O[C@H](C)[C@@H](O)[C@H](N)[C@@H]3O)/C=C/C=C/C=C/C=C/C=C/C=C/C=C/[C@H](C)[C@@H](O)[C@@H](C)[C@H](C)OC(=O)C[C@H](O)C[C@H](O)CC[C@@H](O)[C@H](O)C[C@H](O)C[C@](O)(C[C@@H]1O)O2 [AME, amphotericin B methyl ester] | lower acute, nephro and hepto toxicity than amphotericin B | 2 | lower acute, nephro and hepto toxicity than amphotericin B | many patients developed progressive neurological dysfunction associated with white matter degeneration | 1 | – | – | – | – | –
2 | C[C@@H]1[C@H](O)[C@@H](C)/C=C/C=C/C=C/C=C/C=C/C=C/C=C/[C@H](O[C@@H]2O[C@H](C)[C@@H](O)[C@H](N)[C@@H]2O)C[C@@H]2O[C@](O)(C[C@@H](O)C[C@@H](O)[C@H](O)CC[C@@H](O)C[C@@H](O)CC(=O)O[C@H]1C)C[C@H](O)[C@H]2C(=O)O [AmB, amphotericin B, reference compound] | – | 2 | – | – | 0.5 | negligible | 2-4* mg/kg | 3.58 | – | –
3 | COC(=O)C1C2C[C@@H](OC3O[C@H](C)[C@@H](O)[C@H](NC[C@@]4(O)OC[C@@H](O)[C@H](O)[C@@H]4O)[C@@H]3O)/C=C/C=C/C=C/C=C/C=C/C=C/C=C/[C@H](C)[C@@H](O)[C@@H](C)[C@H](C)OC(=O)C[C@H](O)C[C@H](O)CC[C@@H](O)[C@H](O)C[C@H](O)C[C@](O)(C[C@@H]1O)O2 (stereo partly shown) [Compound C1, N-tagatopyranose-amphotericin B methyl ester] | – | 2 | – | – | 2 | >16 mg/mL | – | < 3 | >64 | significantly lower
4 | COC(=O)C1C2C[C@@H](OC3O[C@H](C)[C@@H](O)[C@H](NC[C@@]4(O)OC[C@@H](O)[C@@H](OC5O[C@H](CO)[C@H](O)[C@H](O)[C@H]5O)[C@@H]4O)[C@@H]3O)/C=C/C=C/C=C/C=C/C=C/C=C/C=C/[C@H](C)[C@@H](O)[C@@H](C)[C@H](C)OC(=O)C[C@H](O)C[C@H](O)CC[C@@H](O)[C@H](O)C[C@H](O)C[C@](O)(C[C@@H]1O)O2 (stereo partly shown) [Compound C2] | – | 2 | – | – | 2 | >16 mg/mL | – | < 3 | >64 | significantly lower
